Measured values reported in patent US9925263B2, “Liquid pharmaceutical formulations for injection comprising procaine and uses thereof” (EAGLE BIOLOGICS, INC., priority 2013, dated 2018).
Where a name gives a salt, the structure may show the parent alone. Read-outs that look alike come from different tables or passages of the source.

Tests used:
HERCEPTIN® = experiment: Viscosity of aqueous solutions of HERCEPTIN® with viscosity-lowering agents; assay type: physicochemical; conditions: 25° C.
Experimental: All viscosities of well-mixed aqueous mAb solutions were measured using either a mVROC microfluidic viscometer (RheoSense) or a DV2T cone and plate viscometer (Brookfield; “C & P”) after a 5 minute equilibration at 25° C. (unless otherwise indicated). The mVROC viscometer was equipped with an “A” or “B” chip, each manufactured with a 50 micron channel. Typically, 0.10 mL of protein solution was back-loaded into a gastight microlab instrument syringe (Hamilton; 100 μL), affixed to the chip, and measured at multiple flow rates, approximately 20%, 40%, and 60% of the maximum pressure for each chip. […] An average absolute viscosity and standard deviation was then calculated from at least these three measurements. The C & P viscometer was equipped with a CPE40 or CPE52 spindle (cone angle of 0.8° and 3.0°, respectively) and 0.50 mL samples were measured at multiple shear rates between 2 and 400 s^−1. Specifically, samples were measured for 30 seconds each at 22.58, 24.38, 26.25, 28.13, 30, 31.88, 45, 67.5, 90, 112.5, 135, 157.5, 180, 202.5, 247, 270, 292.5, 315, 337.5, 360, 382, 400 s^−1, starting at a shear rate that gave at least 10% torque, and continuing until instrument torque reached 100%. An extrapolated zero-shear viscosity was then determined from a plot of dynamic viscosity versus shear rate for the samples measured on a DV2T cone and plate viscometer. The extrapolated zero-shear viscosities reported are the average and standard deviation of at least three measurements.
(§4) Viscosities were measured using a RheoSense mVROC microfluidic viscometer equipped with an “A” or “B” chip.
Viscosities reported were measured on a RheoSense mVROC microfluidic viscometer.

TYSABRI® = experiment: Viscosity of aqueous solutions of TYSABRI® with viscosity-lowering agents; assay type: physicochemical; conditions: 244 mg/mL TYSABRI; excipient 0.1 M; 25° C.
Experimental: (§5) All viscosities of well-mixed aqueous mAb solutions were measured using either a mVROC microfluidic viscometer (RheoSense) or a DV2T cone and plate viscometer (Brookfield; “C & P”) after a 5 minute equilibration at 25° C. […] The mVROC viscometer was equipped with an “A” or “B” chip, each manufactured with a 50 micron channel. Typically, 0.10 mL of protein solution was back-loaded into a gastight microlab instrument syringe (Hamilton; 100 μL), affixed to the chip, and measured at multiple flow rates, approximately 20%, 40%, and 60% of the maximum pressure for each chip. […] An average absolute viscosity and standard deviation was then calculated from at least these three measurements. The C & P viscometer was equipped with a CPE40 or CPE52 spindle (cone angle of 0.8° and 3.0°, respectively) and 0.50 mL samples were measured at multiple shear rates between 2 and 400 s^−1. Specifically, samples were measured for 30 seconds each at 22.58, 24.38, 26.25, 28.13, 30, 31.88, 45, 67.5, 90, 112.5, 135, 157.5, 180, 202.5, 247, 270, 292.5, 315, 337.5, 360, 382, 400 s^−1, starting at a shear rate that gave at least 10% torque, and continuing until instrument torque reached 100%. An extrapolated zero-shear viscosity was then determined from a plot of dynamic viscosity versus shear rate for the samples measured on a DV2T cone and plate viscometer. The extrapolated zero-shear viscosities reported are the average and standard deviation of at least three measurements.
as §4
Subsequently, the aqueous drug product was purified, buffer exchanged, concentrated, dried, reconstituted, and analyzed as described in the same manner. Viscosities reported were measured on a RheoSense mVROC microfluidic viscometer.

biosimilar AVASTIN® = experiment: Viscosity of aqueous solutions of biosimilar AVASTIN® with viscosity-lowering agents; assay type: physicochemical; conditions: for Magnitude of viscosity-lowering effect (replacement of PB with CSAL): 0.25 M
Experimental: (§1) (unless otherwise indicated).
The protein was formulated to contain either 0.25 M phosphate buffer or 0.25 M CSAL.
(§2) Subsequently, the appropriate amount of viscosity-lowering agent was added to result in a final viscosity-lowering agent concentration of 0.15-0.35 M upon reconstitution.
The viscosity-lowering agent(s) were added in an amount sufficient to give concentration upon reconstitution as specified below. In cases of combinations of agents, the concentration of each component is 0.15 M. The protein solutions were then freeze-dried.

SIMPONI ARIA® = conditions: […] thiamine HCl vs […] phosphate buffer; FIG. 9
Experimental: (§6) All viscosities of well-mixed aqueous mAb solutions were measured using either a mVROC microfluidic viscometer (RheoSense) or a DV2T cone and plate viscometer (Brookfield; “C & P”) after a 5 minute equilibration at 25° C. […] The mVROC viscometer was equipped with an “A” or “B” chip, each manufactured with a 50 micron channel. Typically, 0.10 mL of protein solution was back-loaded into a gastight microlab instrument syringe (Hamilton; 100 μL), affixed to the chip, and measured at multiple flow rates, approximately 20%, 40%, and 60% of the maximum pressure for each chip. […] An average absolute viscosity and standard deviation was then calculated from at least these three measurements. The C & P viscometer was equipped with a CPE40 or CPE52 spindle (cone angle of 0.8° and 3.0°, respectively) and 0.50 mL samples were measured at multiple shear rates between 2 and 400 s^−1. Specifically, samples were measured for 30 seconds each at 22.58, 24.38, 26.25, 28.13, 30, 31.88, 45, 67.5, 90, 112.5, 135, 157.5, 180, 202.5, 247, 270, 292.5, 315, 337.5, 360, 382, 400 s^−1, starting at a shear rate that gave at least 10% torque, and continuing until instrument torque reached 100%. An extrapolated zero-shear viscosity was then determined from a plot of dynamic viscosity versus shear rate for the samples measured on a DV2T cone and plate viscometer. […]

[1] = test system: biosimilar AVASTIN®, TYSABRI®, HERCEPTIN®, biosimilar ERBITUX®, REMICADE®; conditions: thiamine HCl 0.1-0.25 M vs 0.25 M PB; Table 33
Experimental: as §6

REMICADE® [2] = experiment: Viscosity of aqueous solutions of […]® with viscosity-lowering agents; assay type: physicochemical; conditions: 25° C.
Experimental: as §1
An extrapolated zero-shear viscosity was determined from a plot of absolute viscosity versus shear rate.
(§3) Following reconstitution, the viscosity of each solution was measured using the microfluidic viscometer as described in previous examples. The solutions were then back-loaded into 1 mL BD insulin syringes with 27, 29, or 31 gauge fixed needles. The force required to extrude the concentrated […]® solutions was then measured using an Instron at a rate of displacement equivalent to a fluid flow rate of 3 mL/min. The expelled solution was collected from the syringe and analyzed by size-exclusion chromatography.

[3] = test system: Crohn's and ulcerative colitis patients; conditions: studies evaluating long-term clinical outcomes; cited from earlier work
REMICADE® [4] = experiment: Syringe extrusion force of concentrated […]® solutions (Instron); assay type: physicochemical; conditions: 1 mL BD insulin syringe, 3 mL/min, REMICADE 224-230 mg/mL, 0.25M agent
Experimental: as §3

ARZERRA® = experiment: Viscosity of aqueous solutions of ARZERRA® with viscosity-lowering agents; assay type: physicochemical; conditions: 0.25M agent, 25° C., pH 7.0
Text: as §1

REMICADE® [5] = experiment: Monomer content of […]® solutions by size exclusion chromatography; assay type: physicochemical; conditions: 0.25M agent
Experimental: Biophysical properties of solutions of […]® formulated with 0.25 M CSAA were assessed over 90 days. Samples of […]® formulated with 0.25 M CSAA were prepared as described in Example 1 above.
as §3

biosimilar RITUXAN® = experiment: Viscosity of aqueous solutions of biosimilar RITUXAN® with viscosity-lowering agents;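 note: absolute viscosity of aqueous antibody solutions determined by microfluidic viscometry (mVROC chip, 50 micron channel) at several flow rates after 5 min equilibration, mean of at least three readings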
branded AVASTIN® = experiment: Viscosity of aqueous solutions of branded AVASTIN®; assay type: physicochemical; conditions: 205 ± 5 mg/mL mAb
Experimental: as §1, §2

bovine gamma globulin = experiment: Viscosity of aqueous gamma globulin solutions on two viscometers; assay type: physicochemical; conditions: without CSAL, or with 0.25M CSAL (label CSAL), 25° C., pH 7.0
Experimental: as §1
Aqueous solutions containing 220 mg/mL […]® and 0.25 M CSAA were prepared as described above Example 1. The viscosities at 25° C. and pH 7.0 are reported in Table 29 as extrapolated zero-shear viscosities from cone and plate viscometer measurements and as absolute viscosities measured with a microfluidic viscometer. […] An extrapolated zero-shear viscosity was determined from a plot of absolute viscosity versus shear rate.
In order to compare a broader range of viscosities and protein concentrations, aqueous solutions of a model antibody, bovine gamma globulin, were prepared with and without 0.25 M CSAL. The viscosities were measured as described above at protein concentrations ranging from 110 mg/mL to 310 mg/mL.

biosimilar ERBITUX® = experiment: Viscosity of aqueous solutions of biosimilar ERBITUX® with viscosity-lowering agents
[6] = 155 ± 5 mg/mL mAb, pH 7.0, 25° C., [CSAL] 0.25 M
[7] = 155 ± 5 mg/mL mAb, pH 7.0, 25° C., [CSAL] 0.38 M
[8] = 155 ± 5 mg/mL mAb, pH 7.0, 25° C., [CSAL] 0.50 M

Experimental for ENBREL®: as §5
ENBREL® obtained commercially and containing pharmaceutical excipients (Mannitol, Sucrose, Tromethamine) was purified, buffer exchanged, concentrated, dried, reconstituted, and analyzed as described in Example 1 above (using the extinction coefficient of 0.96 L/g·cm at 280 nm).

Compound: Cc1ncc(C[n+]2csc(CCO)c2C)c(N)n1 [Thiamine HCl]
- Viscosity (HERCEPTIN®; 218 mg/mL HERCEPTIN, excipient 0.1 M): 41.6 ± 0.5 cP
- Viscosity (HERCEPTIN®; 245 mg/mL HERCEPTIN, 0.10M agent): 41.5 ± 0.5 cP
- Viscosity (TYSABRI®): 43.4 ± 0.7 cP
- Viscosity (ENBREL®; 212 ± 7 mg/mL ENBREL): 141 ± 3
- Viscosity (ENBREL®; 250 ± 3 mg/mL ENBREL): 305 ± 7
- Viscosity (ENBREL®; 271 ± 0 mg/mL ENBREL): 626 ± 32
- Viscosity reduction (ENBREL®; […] thiamine HCl vs […] PB): up to 2 fold
- Viscosity (biosimilar AVASTIN®; 190 mg/mL mAb, excipient 0.1 M, 25° C.): 31.5 ± 1.7 cP
- Viscosity (biosimilar AVASTIN®; 225 mg/mL mAb, excipient 0.25 M, 25° C.): 53.3 ± 6.8 cP
- Viscosity gradient (increase in viscosity with mAb concentration) (SIMPONI ARIA®): the viscosity gradient is reduced
- Viscosity reduction for each mAb [1]: greater than 4 fold
- Viscosity (REMICADE® [2]; 178 mg/mL REMICADE, excipient […]): 40.7 ± 0.3 cP

Compound: Vedolizumab: mAb being developed by Millennium Pharmaceuticals for ulcerative colitis and Crohn's disease
- Patients achieving clinical remission [3]: ~60%

Compound: camphorsulfonic acid 1-(3-aminopropyl)-2-methyl-1H-imidazole [CSAAPMI]
- Syringe Force (REMICADE® [4]; 27 gauge needle): 21.9 N
- Syringe Force (REMICADE® [4]; 29 gauge needle): 30.4 N
- Syringe Force (REMICADE® [4]; 31 gauge needle): 38.4 N
- Viscosity (ARZERRA®; 245 ± 4 mg/mL ARZERRA): 53.6 ± 0.6 cP
- Viscosity (ARZERRA®; 274 ± 10 mg/mL ARZERRA): 98.9 ± 0.7 cP
- Viscosity reduction (biosimilar AVASTIN®; ~230 mg/mL mAb, vs PB, Table 12): approximately 5 fold
- % Monomer (REMICADE® [5]; expelled through 27 gauge needle, REMICADE 224-230 mg/mL (per agent)): 99.1 ± 0.0%
- % Monomer (REMICADE® [5]; expelled through 29 gauge needle, REMICADE 224-230 mg/mL (per agent)): 99.0 ± 0.0%
- % Monomer (REMICADE® [5]; expelled through 31 gauge needle, REMICADE 224-230 mg/mL (per agent)): 99.0 ± 0.0%
- % Monomer (REMICADE® [5]; pre-syringe, REMICADE 220-230 mg/mL (per agent)): 99.2 ± 0.32%
- Viscosity (biosimilar RITUXAN®; 202 ± 2 mg/mL RITUXAN, 0.25M agent, 25° C., pH 7.0): 38.7 ± 0.7
- Viscosity (biosimilar RITUXAN®; pH 7): 78.6 ± 2.0

Compound: camphorsulfonic acid lysine [CSAL]
- Fold reduction in viscosity (branded AVASTIN®; 0.25 M CSAL vs phosphate buffer): 3.3 fold
- Viscosity, Branded AVASTIN ® (branded AVASTIN®; phosphate buffer or 0.25M CSAL, 25° C., pH 7.0): 46.7 ± 0.9 cP
- Magnitude of viscosity-lowering effect (replacement of PB with CSAL) (biosimilar AVASTIN®; 80 mg/mL mAb, 25° C., pH 7.0): 2.1 fold
- Viscosity (biosimilar AVASTIN®; 210 mg/mL mAb, 0.25 M agent, 25° C., pH 7.0): 63.0 ± 1.8 cP
- Fold decrease in viscosity in the presence of CSAL (biosimilar AVASTIN®; 0.25 M CSAL vs original excipients, 101 ± 5 mg/mL mAb, pH 7.0, 25° C.): 1.5 fold
- Fold reduction in viscosity (biosimilar AVASTIN®; 0.25 M CSAL vs phosphate buffer, 205 ± 5 mg/mL mAb): 1.8 fold
- Viscosity (biosimilar AVASTIN®; 101 ± 5 mg/mL mAb, pH 7.0, 25° C., formulation per label (CSAL 0.25M)): 4.03 ± 0.24 cP
- Viscosity (biosimilar AVASTIN®; 200 ± 5 mg/mL mAb, pH 7.0, 25° C., [Salt] 0.25 M of anion, C & P viscometer): 54.9 ± 0.9 cP
- Viscosity, Biosimilar AVASTIN ® (biosimilar AVASTIN®; 205 ± 5 mg/mL mAb, phosphate buffer or 0.25M CSAL, 25° C., pH 7.0): 54.9 ± 0.9 cP
- Viscosity (biosimilar AVASTIN®; 228 ± 5 mg/mL mAb, agent 0.25 M, 25° C., pH 7.0): 113 ± 0 cP
- Viscosity (biosimilar AVASTIN®; 230 ± 5 mg/mL mAb, pH 7.0, 0.25M, 20° C.): 152 ± 0 cP
- Viscosity (biosimilar AVASTIN®; 230 ± 5 mg/mL mAb, pH 7.0, 0.25M, 25° C.): 107 ± 4 cP
- Viscosity (biosimilar AVASTIN®; 230 ± 5 mg/mL mAb, pH 7.0, 0.25M, 30° C.): 95.5 ± 5.4 cP
- Viscosity (biosimilar AVASTIN®; 230 ± 5 mg/mL mAb, pH 7.0, […], 20° C.): 157 ± 0 cP
- Viscosity (biosimilar AVASTIN®; 230 ± 5 mg/mL mAb, pH 7.0, […], 25° C.): 113 ± 0 cP
- Viscosity (biosimilar AVASTIN®; 230 ± 5 mg/mL mAb, pH 7.0, […], 30° C.): 91.7 ± 3.3 cP
- Magnitude of viscosity-lowering effect (replacement of PB with CSAL) (biosimilar AVASTIN®; 230±5 mg/mL mAb, 25° C., pH 7.0): 3.7 fold
- Viscosity (bovine gamma globulin; 170 mg/mL gamma globulin, C & P): 10.3 ± 1.0 cP
- Viscosity (bovine gamma globulin; 170 mg/mL gamma globulin, microfluidic): 10.6 ± 0.1 cP
- Viscosity (bovine gamma globulin; 260 mg/mL gamma globulin, C & P): 93.5 ± 1.2 cP
- Viscosity (bovine gamma globulin; 260 mg/mL gamma globulin, microfluidic): 85.3 ± 0.3 cP
- Viscosity (bovine gamma globulin; 310 mg/mL gamma globulin, C & P): 223 ± 1 cP
- Viscosity (bovine gamma globulin; 310 mg/mL gamma globulin, microfluidic): 203 ± 2 cP
- Fold decrease in viscosity in the presence of CSAL (biosimilar ERBITUX®; 0.25 M CSAL vs original excipients, 80 ± 5 mg/mL mAb, pH 7.0, 25° C.): 2.7 fold
- Viscosity (biosimilar ERBITUX®; 80 ± 5 mg/mL mAb, pH 7.0, 25° C., formulation per label (CSAL 0.25M)): 3.08 ± 0.18 cP
- Magnitude of viscosity-lowering effect (replacement of PB with CSAL) (biosimilar ERBITUX®; 100±5 mg/mL mAb, 0.25 M, 25° C., pH 7.0): 1.1 fold
- Fold viscosity reduction (compared to no CSAL present) (biosimilar ERBITUX®; 155 ± 5 mg/mL mAb, pH 7.0, 25° C., [CSAL] 0 M): 1 fold
- Viscosity (biosimilar ERBITUX®; 155 ± 5 mg/mL mAb, pH 7.0, 25° C., [CSAL] 0 M (0.25 M phosphate buffer control)): 154 ± 0 cP
- Fold viscosity reduction (compared to no CSAL present) (biosimilar ERBITUX®; [6]): 8.4 fold
- Viscosity (biosimilar ERBITUX®; [6]): 18.3 ± 0.0 cP
- Fold viscosity reduction (compared to no CSAL present) (biosimilar ERBITUX®; [7]): 10.3 fold
- Viscosity (biosimilar ERBITUX®; [7]): 14.9 ± 0.1 cP
- Fold viscosity reduction (compared to no CSAL present) (biosimilar ERBITUX®; [8]): 12.1 fold
- Viscosity (biosimilar ERBITUX®; [8]): 12.7 ± 0.1 cP
- Viscosity (biosimilar ERBITUX®; 222 ± 5 mg/mL mAb, pH 7.0, 0.25M agent, 25° C.): 109 ± 1 cP
- Viscosity (biosimilar ERBITUX®; 225 ± 5 mg/mL mAb, pH 7.0, 0.25M agent, 20° C.): 166 ± 2 cP
- Viscosity (biosimilar ERBITUX®; 225 ± 5 mg/mL mAb, pH 7.0, 0.25M agent, 25° C.): 109 ± 1 cP
- Viscosity (biosimilar ERBITUX®; 225 ± 5 mg/mL mAb, pH 7.0, 0.25M agent, 30° C.): 78.4 ± 1.5 cP
- Magnitude of viscosity-lowering effect (replacement of PB with CSAL) (biosimilar ERBITUX®; pH 7): 10.3 fold
- Fold Reduction (biosimilar ERBITUX®; vs phosphate buffer, 222 ± 5 mg/mL mAb, pH 7.0, 0.25M agent, 25° C.): 10.4 fold
- Viscosity (REMICADE® [2]; 166 ± 4 mg/mL REMICADE, 0.25M agent, pH 7.0): 27.4 ± 0.2 cP
- Viscosity (REMICADE® [2]; 222 ± 6 mg/mL REMICADE, 0.25M agent, pH 7.0): 95.3 ± 1.1 cP
